Target: T1, chicken gizzard smooth muscle myosin subfragment-1 chemically crosslinked to either cardiac or skeletal actin (Gallus gallus, UniProt P10587)
T1 construct: chicken gizzard smooth muscle myosin subfragment-1; from tissue; host or cells: chicken gizzard
Assay: Dose dependent smooth muscle myosin ATPase modulation (pyruvate kinase/horseradish peroxidase/pyruvate oxidase-coupled ATPase assay)
Format: biochemical
Conditions: read-out: IC50 Arithmetic Mean
Outline: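 Chicken gizzard smooth muscle myosin S1 crosslinked (EDC/NHS) to cardiac or skeletal actin, concentration titrated to a set ATPase rate. Pyruvate kinase/pyruvate oxidase/HRP-coupled assay, 0.15 mM ATP, 12 mM K-PIPES pH 7.00, 100 mM KCl, amplex red fluorescence; IC50 from 4-parameter fit.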

| IC50 | Molecule |
| --- | --- |
| 334 nM | NCc1cccc(CNC(=O)c2ccc(N3CCCCC3)nc2NCCc2cccc(F)c2)n1 [Compound 101, N-{[6-(aminomethyl)(2-pyridyl)]methyl}(2-{[2-(3-fluorophenyl)ethyl]amino}-6-piperidyl(3-pyridyl))carboxamide] |
| 431 nM | O=C(NCc1cccnc1)c1ccc(N2CC[C@H](F)C2)nc1NCCc1cccc(F)c1 [Compound 113, (6-((3S)-3-fluoropyrrolidinyl)-2-{[2-(3-fluorophenyl)ethyl]amino}(3-pyridyl))-N-(3-pyridylmethyl)carboxamide] |
| 2150 nM | CC(C)(C)OC(=O)N1CC=C(c2ccc(C(=O)NCc3cccnc3)c(NCCc3cccc(F)c3)n2)CC1 [Compound 58, tert-butyl 4-(6-{[2-(3-fluorophenyl)ethyl]amino}-5-[N-(3-pyridylmethyl)carbamoyl]-2-pyridyl)-1,2,5,6-tetrahydropyridinecarboxylate] |
| 165 nM | N#Cc1cc(C(=O)NCc2cccnc2)c(NCCc2cccc(F)c2)nc1N1CCCC1 [Compound 49, (5-cyano-2-{[2-(3-fluorophenyl)ethyl]amino}-6-pyrrolidinyl(3-pyridyl))-N-(3-pyridylmethyl)carboxamide] |
| 234 nM | O=C(NCc1cccnc1)c1cc(Cl)c(N2CCCC2)nc1NCCc1cccc(F)c1 [Compound 48, (5-chloro-2-{[2-(3-fluorophenyl)ethyl]amino}-6-pyrrolidinyl(3-pyridyl))-N-(3-pyridylmethyl)carboxamide] |
| 16900 nM | NC[C@@H]1CCN(c2ccc(C(=O)NCc3cccnc3)c(NCCc3cccc(F)c3)n2)C1 [Compound 11, (6-[(3S)-3-(aminomethyl)pyrrolidinyl]-2-{[2-(3-fluorophenyl)ethyl]amino}(3-pyridyl))-N-(3-pyridylmethyl)carboxamide] |
| 430 nM | CC(=O)N1CC=C(c2ccc(C(=O)NCc3cccnc3)c(NCCc3cccc(F)c3)n2)CC1 [Compound 56, (6-(1-acetyl(4-1,2,5,6-tetrahydropyridyl))-2-{[2-(3-fluorophenyl)ethyl]amino}(3-pyridyl))-N-(3-pyridylmethyl)carboxamide] |
| 35500 nM | N[C@@H]1CCN(c2ccc(C(=O)NCc3cccnc3)c(NCCc3cccc(F)c3)n2)C1 [Compound 46, (6-((3R)-3-aminopyrrolidinyl)-2-{[2-(3-fluorophenyl)ethyl]amino}(3-pyridyl))-N-(3-pyridylmethyl)carboxamide] |
| 671 nM | O=C1CC=C(c2ccc(C(=O)NCc3cccnc3)c(NCCc3cccc(F)c3)n2)CC1 [Compound 64, (2-{[2-(3-fluorophenyl)ethyl]amino}-6-(4-oxocyclohex-1-enyl)(3-pyridyl))-N-(3-pyridylmethyl)carboxamide] |
| 23 nM | NCc1ncccc1CNC(=O)c1cc(F)c(N2CC[C@@H](F)C2)nc1NCCc1cccc(F)c1 [Compound 53, (6-((3R)-3-fluoropyrrolidinyl)-5-fluoro-2-{[2-(3-fluorophenyl)ethyl]amino}(3-pyridyl))-N-{[2-(aminomethyl)(3-pyridyl)]methyl}carboxamide] |
| 15900 nM | NC(=O)CCNC(=O)c1ccc(N2CC[C@@H](O)C2)nc1NCCc1cccc(F)c1 [Compound 17, (6-((3R)-3-hydroxypyrrolidinyl)-2-{[2-(3-fluorophenyl)ethyl]amino}(3-pyridyl))-N-(2-carbamoylethyl)carboxamide] |
| 533 nM | O=C(NCc1cccnc1)c1ccc(N2CC[C@@H](O)C2)nc1NCCc1cccc(F)c1 [Compound 14, (6-((3R)-3-hydroxypyrrolidinyl)-2-{[2-(3-fluorophenyl)ethyl]amino}(3-pyridyl))-N-(3-pyridylmethyl)carboxamide] |
| 8570 nM | CC(=O)N1CCN(c2ccc(C(=O)NCc3cccnc3)c(NCCc3cccc(F)c3)n2)CC1 [Compound 123, (6-(4-acetylpiperazinyl)-2-{[2-(3-fluorophenyl)ethyl]amino}(3-pyridyl))-N-(3-pyridylmethyl)carboxamide] |
| 212 nM | N-{[(2R)-1-(2-aminoacetyl)pyrrolidin-2-yl]methyl}(5-fluoro-2-{[2-(3-fluorophenyl)ethyl]amino}-6-pyrrolidinyl(3-pyridyl))carboxamide [Compound 76] |
| 31800 nM | O=C(NCc1cccnc1)c1ccc(N2CCNCC2)nc1NCCc1cccc(F)c1 [Compound 116, (2-{[2-(3-fluorophenyl)ethyl]amino}-6-piperazinyl(3-pyridyl))-N-(3-pyridylmethyl)carboxamide] |
| 14300 nM | CC1CCN(c2ccc(C(=O)NCc3cccnc3)c(NCCc3ccccn3)n2)CC1 [Compound 34, {6-(4-methylpiperidyl)-2-[(2-(2-pyridyl)ethyl)amino](3-pyridyl)}-N-(3-pyridylmethyl)carboxamide] |
| 4560 nM | O=C(NCc1cccnc1)c1ccc(N2CCCC2=O)nc1NCCc1cccc(F)c1 [Compound 15, (2-{[2-(3-fluorophenyl)ethyl]amino}-6-(2-oxopyrrolidinyl)(3-pyridyl))-N-(3-pyridylmethyl)carboxamide] |
| 627 nM | CNC(=O)CNC(=O)c1ccc(C2=CCN(C(=O)OC)CC2)nc1NCCc1cccc(F)c1 [Compound 43, methyl 4-(6-{[2-(3-fluorophenyl)ethyl]amino}-5-{N-[(N-methylcarbamoyl)methyl]carbamoyl}-2-pyridyl)-1,2,5,6-tetrahydropyridinecarboxylate] |
| 28400 nM | N[C@H]1CCN(c2ccc(C(=O)NCc3cccnc3)c(NCCc3cccc(F)c3)n2)C1 [Compound 30, (6-((3S)-3-aminopyrrolidinyl)-2-{[2-(3-fluorophenyl)ethyl]amino}(3-pyridyl))-N-(3-pyridylmethyl)carboxamide] |
| 756 nM | O=C(NCc1cccnc1)c1ccc(N2CCC(O)CC2)nc1NCCc1cccc(F)c1 [Compound 115, (2-{[2-(3-fluorophenyl)ethyl]amino}-6-(4-hydroxypiperidyl)(3-pyridyl))-N-(3-pyridylmethyl)carboxamide] |
| 88.2 nM | NCc1ncccc1CNC(=O)c1ccc(N2CC[C@H](F)C2)nc1NCCc1cccc(F)c1 [Compound 38, (6-((3S)-3-fluoropyrrolidinyl)-2-{[2-(3-fluorophenyl)ethyl]amino}(3-pyridyl))-N-{[2-(aminomethyl)(3-pyridyl)]methyl}carboxamide] |
| 1590 nM | NC(=O)CCNC(=O)c1ccc(N2CCCC2)nc1NCCc1cccc(F)c1 [Compound 13, N-(2-carbamoylethyl)(2-{[2-(3-fluorophenyl)ethyl]amino}-6-pyrrolidinyl(3-pyridyl))carboxamide] |
| 1500 nM | O=C(NCc1cccnc1)c1ccc(C2=NCCO2)nc1NCCc1cccc(F)c1 [Compound 35, (2-{[2-(3-fluorophenyl)ethyl]amino}-6-(1,3-oxazolin-2-yl)(3-pyridyl))-N-(3-pyridylmethyl)carboxamide] |
| 1530 nM | COC(=O)N1CCN(c2ccc(C(=O)NCc3cccnc3)c(NCCc3cccc(F)c3)n2)CC1 [Compound 85, methyl 4-(6-{[2-(3-fluorophenyl)ethyl]amino}-5-[N-(3-pyridylmethyl)carbamoyl]-2-pyridyl)piperazinecarboxylate] |
| 3070 nM | NCc1cccc(CNC(=O)c2ccc(N3CC[C@H](O)C3)nc2NCCc2cccc(F)c2)n1 [Compound 102, (6-((3S)-3-hydroxypyrrolidinyl)-2-{[2-(3-fluorophenyl)ethyl]amino}(3-pyridyl))-N-{[6-(aminomethyl)(2-pyridyl)]methyl}carboxamide] |
| 308 nM | N-{[(2R)-1-(4-aminobutanoyl)pyrrolidin-2-yl]methyl}(5-fluoro-2-{[2-(3-fluorophenyl)ethyl]amino}-6-pyrrolidinyl(3-pyridyl))carboxamide [Compound 74] |
| 1320 nM | NCc1ncccc1CNC(=O)c1cc(F)c(C2CC2)nc1NCCc1cccc(F)c1 [Compound 81, N-{[2-(aminomethyl)(3-pyridyl)]methyl}(6-cyclopropyl-5-fluoro-2-{[2-(3-fluorophenyl)ethyl]amino}(3-pyridyl))carboxamide] |
| 4410 nM | O=C(NCc1cccnc1)c1ccc(C2CCCC2)nc1NCCc1cccc(F)c1 [Compound 59, (6-cyclopentyl-2-{[2-(3-fluorophenyl)ethyl]amino}(3-pyridyl))-N-(3-pyridylmethyl)carboxamide] |
| 125 nM | NCc1ncccc1CNC(=O)c1cc(F)c(N2CC[C@@H](O)C2)nc1NCCc1cccc(F)c1 [Compound 55, (6-((3R)-3-hydroxypyrrolidinyl)-5-fluoro-2-{[2-(3-fluorophenyl)ethyl]amino}(3-pyridyl))-N-{[2-(aminomethyl)(3-pyridyl)]methyl}carboxamide] |
| 71300 nM | CN(C)C(=O)c1ccc(N2CC[C@@H](O)C2)nc1NCCc1cccc(F)c1 [Compound 4, (6-((3R)-3-hydroxypyrrolidinyl)-2-{[2-(3-fluorophenyl)ethyl]amino}(3-pyridyl))-N,N-dimethylcarboxamide] |

| Molecule | IC50 |
| --- | --- |
| CC(C)(C)OC(=O)NC1CCN(c2ccc(C(=O)NCc3cccnc3)c(NCCc3cccc(F)c3)n2)C1 (stereo not drawn) [Compound 91, (tert-butoxy)-N-[1-(6-{[2-(3-fluorophenyl)ethyl]amino}-5-[N-(3-pyridylmethyl)carbamoyl](2-pyridyl))pyrrolidin-3-yl]carboxamide] | 18500 nM |
| C[C@H](CNC(=O)c1cc(F)c(N2CCCC2)nc1NCCc1cccc(F)c1)NC(=O)CNC(=O)OC(C)(C)C [Compound 63, N-{(1R)-2-[(5-fluoro-2-{[2-(3-fluorophenyl)ethyl]amino}-6-pyrrolidinyl(3-pyridyl))carbonylamino]-isopropyl}-2-[(tert-butoxy)carbonylamino]acetamide] | 15100 nM |
| CC(C)(C)OC(=O)NC1CCN(c2ccc(C(=O)NCc3cccnc3)c(NCCc3cccc(F)c3)n2)CC1 [Compound 110, (tert-butoxy)-N-[1-(6-{[2-(3-fluorophenyl)ethyl]amino}-5-[N-(3-pyridylmethyl)carbamoyl](2-pyridyl))(4-piperidyl)]carboxamide] | 16400 nM |

— patent publication US7939534B2, “Certain chemical entities, compositions, and methods” (Cytokinetics, Inc., priority 2006, dated 2011)
